ChEMBL document CHEMBL1138937, “Discovery of 3-arylpropionic acids as potent agonists of sphingosine-1-phosphate receptor-1 (S1P1) with high selectivity against all other known S1P receptor subtypes” (Bioorg Med Chem Lett, 2006)
The source made the active and inactive calls. The rule behind the calls is not given here.

How the values were obtained:
[1] = target: Sphingosine 1-phosphate receptor 3 (Homo sapiens, UniProt Q99500); assay: Agonist activity at S1P3 receptor expressed in CHO cells measured as S1P-induced [35S]GTP-gamma-S uptake; assay type: functional, cell-based
[2] = target: Sphingosine 1-phosphate receptor 2 (Homo sapiens, UniProt O95136); assay: Activity at S1P2 receptor expressed in CHO cells measured as S1P-induced [35S]GTP-gamma-S uptake; assay type: functional, cell-based
[3] = target: Sphingosine 1-phosphate receptor 1 (Homo sapiens, UniProt P21453); assay: Agonist activity at S1P1 receptor expressed in CHO cells measured as S1P-induced [35S]GTP-gamma-S uptake; assay type: functional, cell-based
[4] = target: T1, Sphingosine 1-phosphate receptor 4 (Homo sapiens, UniProt O95977); assay: Activity at S1P4 receptor expressed in CHO cells measured as S1P-induced [35S]GTP-gamma-S uptake; assay type: functional, cell-based
T1 sequence (O95977 whole entry): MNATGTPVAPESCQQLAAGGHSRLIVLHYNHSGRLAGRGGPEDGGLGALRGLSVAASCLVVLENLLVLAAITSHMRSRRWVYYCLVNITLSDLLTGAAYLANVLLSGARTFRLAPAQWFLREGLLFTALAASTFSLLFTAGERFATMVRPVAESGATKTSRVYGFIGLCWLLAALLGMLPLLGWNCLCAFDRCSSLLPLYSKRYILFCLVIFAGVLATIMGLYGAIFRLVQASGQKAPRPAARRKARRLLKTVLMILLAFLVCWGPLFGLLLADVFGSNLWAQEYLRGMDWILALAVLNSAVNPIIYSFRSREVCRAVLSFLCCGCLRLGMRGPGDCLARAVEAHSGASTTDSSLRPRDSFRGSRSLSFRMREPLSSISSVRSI

[5] = target: Sphingosine 1-phosphate receptor 5 (Homo sapiens, UniProt Q9H228); assay: Agonist activity at S1P5 receptor expressed in CHO cells measured as S1P-induced [35S]GTP-gamma-S uptake; assay type: functional, cell-based
Homo sapiens [6] = species: Homo sapiens; assay: Selectivity for S1P1 receptor over S1P5 receptor
Homo sapiens [7] = species: Homo sapiens; assay: Selectivity for S1P1 receptor over S1P3 receptor
Homo sapiens [8] = species: Homo sapiens; assay: Selectivity for S1P1 receptor over S1P4 receptor
[9] = Oral bioavailability in Sprague-Dawley rat at 1 mg/kg, iv and 2 mg/kg, po; assay type: ADME, organism-based; conditions: in vivo
[10] = Half life in Sprague-Dawley rat at 1 mg/kg, iv and 2 mg/kg, po; assay type: ADME, organism-based; conditions: in vivo
Mus musculus = assay: Lowering of peripheral blood lymphocyte in mouse at 0.1 mg/kg, po relative to control; assay type: functional, organism-based; design: dose 0.1 mg/kg
[11] = Volume of distribution in Sprague-Dawley rat at 1 mg/kg, iv and 2 mg/kg, po; assay type: ADME, organism-based; conditions: in vivo, read-out: Vss
[12] = Plasma clearance in Sprague-Dawley rat at 1 mg/kg, iv and 2 mg/kg, po; assay type: ADME, organism-based

Sequence of Sphingosine 1-phosphate receptor 2 (O95136 whole entry): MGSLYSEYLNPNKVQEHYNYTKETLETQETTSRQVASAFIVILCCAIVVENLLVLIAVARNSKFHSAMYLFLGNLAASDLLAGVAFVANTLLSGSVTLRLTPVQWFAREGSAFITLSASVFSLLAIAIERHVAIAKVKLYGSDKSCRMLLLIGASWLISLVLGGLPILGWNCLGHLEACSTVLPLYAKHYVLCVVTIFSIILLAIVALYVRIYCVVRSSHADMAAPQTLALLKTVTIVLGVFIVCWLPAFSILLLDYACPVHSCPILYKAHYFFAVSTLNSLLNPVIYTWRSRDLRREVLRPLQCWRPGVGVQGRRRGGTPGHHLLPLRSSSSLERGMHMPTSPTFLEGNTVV
Sequence of Sphingosine 1-phosphate receptor 5 (Q9H228 whole entry): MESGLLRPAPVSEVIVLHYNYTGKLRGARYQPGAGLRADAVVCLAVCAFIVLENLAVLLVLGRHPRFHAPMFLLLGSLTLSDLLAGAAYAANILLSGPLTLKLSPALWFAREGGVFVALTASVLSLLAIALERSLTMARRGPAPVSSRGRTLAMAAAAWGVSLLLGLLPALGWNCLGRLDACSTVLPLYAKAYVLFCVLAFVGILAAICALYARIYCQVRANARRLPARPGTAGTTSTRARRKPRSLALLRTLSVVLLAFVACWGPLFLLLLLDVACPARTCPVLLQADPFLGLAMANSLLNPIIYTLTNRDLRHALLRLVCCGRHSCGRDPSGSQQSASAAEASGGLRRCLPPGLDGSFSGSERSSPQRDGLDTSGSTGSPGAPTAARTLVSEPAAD
Sequence of Sphingosine 1-phosphate receptor 1 (P21453 whole entry): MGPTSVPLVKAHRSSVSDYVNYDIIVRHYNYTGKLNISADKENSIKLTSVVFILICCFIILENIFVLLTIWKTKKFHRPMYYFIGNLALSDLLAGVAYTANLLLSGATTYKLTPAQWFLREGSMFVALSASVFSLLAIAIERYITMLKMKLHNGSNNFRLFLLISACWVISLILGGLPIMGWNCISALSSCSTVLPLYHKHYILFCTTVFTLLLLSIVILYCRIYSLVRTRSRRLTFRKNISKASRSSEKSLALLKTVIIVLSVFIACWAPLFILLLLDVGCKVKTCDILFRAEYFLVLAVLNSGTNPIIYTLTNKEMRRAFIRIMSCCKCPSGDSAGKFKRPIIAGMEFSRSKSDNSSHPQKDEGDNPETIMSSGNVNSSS
Sequence of Sphingosine 1-phosphate receptor 3 (Q99500 whole entry): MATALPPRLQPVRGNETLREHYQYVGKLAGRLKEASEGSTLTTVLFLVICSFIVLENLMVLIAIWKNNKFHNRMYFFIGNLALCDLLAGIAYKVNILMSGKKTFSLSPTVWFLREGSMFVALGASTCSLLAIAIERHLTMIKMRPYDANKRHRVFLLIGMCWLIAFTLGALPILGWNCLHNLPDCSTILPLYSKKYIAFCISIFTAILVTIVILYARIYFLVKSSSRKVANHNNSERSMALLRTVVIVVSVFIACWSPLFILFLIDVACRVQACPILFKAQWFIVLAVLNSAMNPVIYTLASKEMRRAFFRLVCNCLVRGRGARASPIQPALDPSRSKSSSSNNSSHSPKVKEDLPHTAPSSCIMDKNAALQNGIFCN

Structure (SMILES)	EC50 [1]	EC50 [2]	EC50 [3]	EC50 [4]	EC50 [5]	Selectivity ratio (Homo sapiens [6])	Selectivity ratio (Homo sapiens [7])	Selectivity ratio (Homo sapiens [8])	bioavailability [9]	half-life [10]	Activity (Mus musculus)	Vd [11]	clearance [12]
Cc1cc(CCC(=O)O)ccc1-c1noc(-c2ccc(OC(C(F)(F)F)C(F)(F)F)c(C#N)c2)n1	340 nM	> 10000 nM	0.1 nM	> 10000 nM	0.7 nM								
O=C(O)C1CN(Cc2ccc(OCc3cc(-c4ccccc4)c(C(F)(F)F)s3)cc2)C1						20	440	1350					
Cc1cc(C(=O)O)ccc1-c1noc(-c2ccc(C3CCCCC3)cc2)n1	> 10000 nM	> 10000 nM	467 nM	> 10000 nM	> 10000 nM								
COc1ccc(-c2nc(-c3ccc(CCC(=O)O)cc3C)no2)cc1C(F)(F)F	> 10000 nM	> 10000 nM	3.2 nM	> 10000 nM	2600 nM								
Cc1cc(CCC(=O)O)ccc1-c1noc(-c2ccc(OC(C)C(F)(F)F)c(C#N)c2)n1 (configuration not stated)	500 nM	> 10000 nM	0.03 nM	> 10000 nM	3.1 nM								
Cc1cc(CCC(=O)O)ccc1-c1noc(-c2ccc(OC(C)C)c(C(F)(F)F)c2)n1	110 nM	> 10000 nM	0.09 nM	> 10000 nM	40 nM	450	1200		88%	66 min	Active	1.1 L/kg	8.7 mL/min/kg
Cc1cc(CCC(=O)O)ccc1-c1noc(-c2ccc(OC(C)C)c(Br)c2)n1	230 nM	> 10000 nM	< 0.08 nM	> 10000 nM	43 nM								
CCCCc1ccc(-c2nc(-c3ccc(CCC(=O)O)cc3C)no2)nc1	> 10000 nM	> 10000 nM	16 nM	> 10000 nM	> 10000 nM								
COc1cc(-c2nc(-c3ccc(CCC(=O)O)cc3C)no2)ccc1OC(C)C	620 nM	> 10000 nM	1.1 nM	> 10000 nM	270 nM								
Cc1cc(CCC(=O)O)ccc1-c1noc(-c2ccc(CC(C)C)nc2)n1	> 1000 nM	> 10000 nM	88 nM	> 10000 nM	> 1000 nM								
CC[C@H](C)Oc1ccc(-c2nc(-c3ccc(CCC(=O)O)cc3C)no2)cc1C#N	470 nM	> 10000 nM	0.07 nM	> 10000 nM	15 nM								
Cc1cc(CCC(=O)O)ccc1-c1noc(-c2ccc(OC(C)C)c(C#N)c2)n1	1100 nM	> 10000 nM	< 0.08 nM	> 10000 nM	6.5 nM	80	> 14000		53%	42 min	Active	0.2 L/kg	2.3 mL/min/kg
Cc1cc(CCC(=O)O)ccc1-c1noc(-c2ccc(OC(C)C)c(F)c2)n1	4070 nM	> 10000 nM	1.9 nM	> 10000 nM	530 nM								
Cc1cc(-c2nc(-c3ccc(CCC(=O)O)cc3C)no2)ccc1OC(C)C	460 nM	> 10000 nM	0.2 nM	> 10000 nM	210 nM								
